Results taken from patent US8951756B2, “Alkaline feed” (Hoffmann-La Roche Inc., priority 2010, dated 2015).
Converted amounts (≈) assume the structure as drawn. One block for each molecule: values may come before it.

Assays:
[1] = physchem; settings: water
[2] = at 20 °C; cited from earlier work
[3] = physchem; settings: aqueous buffer, thermodynamic from solid
Description: (§1) The calculated amount of Leucine was weighted into a 500 ml flask. After addition of 250 ml deionized water the solution is sterilized by autoclavation. Thereafter 250 ml of a 25% (w/v) ammonia solution is added and determined whether the Leucine was dissolved or not. After dissolution of the Leucine the final volume of the solution was determined.

[4] = Determination of solubility of Leucine in an ammonia solution; settings: for soluble: 250 ml water + 250 ml 25% (w/v) ammonia solution
Description: as §1

Structure (SMILES): N[C@@H](Cc1c[nH]cn1)C(=O)O [histidine]
solubility ([1]; 20 °C): < 50 mg/mL

Structure (SMILES): CC[C@H](C)[C@H](N)C(=O)O [isoleucine]
solubility in water [2]: 40 g/L (≈ 305 mM)
solubility ([1]; 20 °C): < 50 mg/mL

Structure (SMILES): N[C@@H](Cc1ccccc1)C(=O)O [phenylalanine]
solubility ([1]; 20 °C): < 50 mg/mL

Structure (SMILES): N[C@@H](Cc1c[nH]c2ccccc12)C(=O)O [tryptophane]
solubility in water [2]: 10 g/L (≈ 49 mM)
solubility ([1]; 20 °C): < 50 mg/mL

Structure (SMILES): CC(C)[C@H](N)C(=O)O [valine]
solubility in water [2]: 88 g/L (≈ 751 mM)

More lines, now with the values ahead:

solubility ([1]; 18 °C): < 50 mg/mL
Structure (SMILES): NC(=O)CC[C@H](N)C(=O)O [glutamine]

solubility ([1]; 20 °C): < 50 mg/mL
solubility [3]: 76 mg/mL (≈ 579 mM)
solubility in alkaline solution relative to solubility in water ([4]; 12.5% (w/v) ammonia versus water at 20 °C): more than three times
soluble ([4]; Leucine concentration 17 g/l): yes
soluble ([4]; Leucine concentration 18 g/l): yes
soluble ([4]; Leucine concentration 19 g/l): yes
soluble ([4]; Leucine concentration 20 g/l): yes
soluble ([4]; Leucine concentration 21 g/l): yes
soluble ([4]; Leucine concentration 25 g/l): yes
soluble ([4]; Leucine concentration 30 g/l): yes
soluble ([4]; Leucine concentration 40 g/l): yes
soluble ([4]; Leucine concentration 50 g/l): yes
soluble ([4]; Leucine concentration 60 g/l): yes
soluble ([4]; Leucine concentration 70 g/l): yes
soluble ([4]; Leucine concentration 71 g/l): yes
soluble ([4]; Leucine concentration 72 g/l): yes
soluble ([4]; Leucine concentration 73 g/l): yes
soluble ([4]; Leucine concentration 74 g/l): yes
soluble ([4]; Leucine concentration 75 g/l): yes
soluble ([4]; Leucine concentration 76 g/l): yes
soluble ([4]; Leucine concentration 77 g/l): no
Structure (SMILES): CC(C)C[C@H](N)C(=O)O [leucine]

solubility ([1]; 20 °C): < 50 mg/mL
Structure (SMILES): CSCC[C@H](N)C(=O)O [methionine]
